Columns and labels:
[1] = system: Liver cytosol; assay: (§1) Drug metabolism in human liver cytosol assessed as (1R,2S,5S)-N-((2R,3R)-4-amino-1-cyclobutyl-3-hydroxy-4-oxobutan-2-yl)-3-((S)-2-(3-tert-butylureido)-3,3-dimethylbutanoyl)-6,6-dimethyl-3-azabicyclo[3.1.0]hexane-2-carboxamide formation per mg protein after 60 mins by LC-MS/MS/FSA method; assay type: ADME, tissue-based; conditions: 1 h
[2] = system: Liver cytosol; assay: as §1, with “Ratio of Vmax to Km for drug” for “Drug”; assay type: ADME; conditions: 1 h
[3] = biological target: Cytochrome P450 3A4 (Homo sapiens, UniProt P08684); assay: Drug metabolism assessed as human CYP3A4-mediated compound formation from 5 uM [14C]boceprevir after 120 mins by LC-MS/FSA method relative to total [14C]boceprevir; assay type: ADME; conditions: recombinant enzyme, 2 h, BLD = below limit of detection
[4] = Drug excretion in human feces; assay type: ADME; design: dosed compound name [14C]boceprevir
[5] = Drug excretion in human feces assessed as oxidative metabolites level; assay type: ADME; design: dosed compound name [14C]boceprevir
[6] = Drug excretion in human feces assessed as carbonyl reduction pathway related metabolites level; assay type: ADME; design: dosed compound name [14C]boceprevir
[7] = (§2) Drug metabolism in human liver S9 fraction at 20 uM assessed as (1R,2S,5S)-N-((2S,3R)-4-amino-1-cyclobutyl-3-hydroxy-4-oxobutan-2-yl)-3-((S)-2-(3-tert-butylureido)-3,3-dimethylbutanoyl)-6,6-dimethyl-3-azabicyclo[3.1.0]hexane-2-carboxamide formation in presence of pargyline by LC-MS/MS/FSA method; assay type: ADME, subcellular; conditions: s9, 20 µM
[8] = system: Liver cytosol; assay: Drug metabolism in human liver cytosol at 20 uM assessed as (1R,2S,5S)-N-((2S,3R)-4-amino-1-cyclobutyl-3-hydroxy-4-oxobutan-2-yl)-3-((S)-2-(3-tert-butylureido)-3,3-dimethylbutanoyl)-6,6-dimethyl-3-azabicyclo[3.1.0]hexane-2-carboxamide formation in presence of mefenamic acid by LC-MS/MS/FSA method; assay type: ADME
[9] = as §2, with “phenolphthalein” for “pargyline”; assay type: ADME, subcellular; conditions: s9, 20 µM
[10] = system: Liver cytosol; assay: Drug metabolism in human liver cytosol at 20 uM assessed as (1R,2S,5S)-N-((2S,3R)-4-amino-1-cyclobutyl-3-hydroxy-4-oxobutan-2-yl)-3-((S)-2-(3-tert-butylureido)-3,3-dimethylbutanoyl)-6,6-dimethyl-3-azabicyclo[3.1.0]hexane-2-carboxamide formation in presence of menadione by LC-MS/MS/FSA method; assay type: ADME
[11] = biological target: T1, Cytochrome P450 2J2 (Homo sapiens, UniProt P51589); assay: Drug metabolism assessed as human CYP2J2-mediated compound formation from 5 to 20 uM [14C]boceprevir after 120 mins by LC-MS/FSA method relative to total [14C]boceprevir; assay type: ADME; conditions: recombinant enzyme, 2 h
T1 sequence (P51589 whole entry): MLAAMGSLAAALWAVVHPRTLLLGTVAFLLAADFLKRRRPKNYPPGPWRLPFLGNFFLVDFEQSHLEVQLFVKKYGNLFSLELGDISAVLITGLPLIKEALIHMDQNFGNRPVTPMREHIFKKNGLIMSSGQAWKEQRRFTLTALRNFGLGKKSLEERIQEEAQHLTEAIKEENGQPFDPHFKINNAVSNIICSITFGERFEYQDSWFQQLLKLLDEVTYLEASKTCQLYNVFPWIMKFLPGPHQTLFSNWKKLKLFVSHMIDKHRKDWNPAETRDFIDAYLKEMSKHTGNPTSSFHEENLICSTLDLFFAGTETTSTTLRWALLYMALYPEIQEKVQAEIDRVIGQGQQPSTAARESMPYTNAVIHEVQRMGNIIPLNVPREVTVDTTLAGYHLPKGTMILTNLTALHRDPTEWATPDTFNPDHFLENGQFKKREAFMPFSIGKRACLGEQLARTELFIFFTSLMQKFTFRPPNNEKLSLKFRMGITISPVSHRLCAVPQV

[12] = biological target: T2, Aldo-keto reductase family 1 member C3 (Homo sapiens, UniProt P42330); assay: Drug metabolism in human recombinant […] HEK293 cells treated with 20 uM boceprevir assessed as 1 mM BNPP-mediated inhibition of AKR1C3-mediated metabolite formation after 120 mins in presence of NADPH by LC-MS/MS/FSA method; assay type: ADME, cell-based; design: interact cpd dose 1 mM; conditions: hek293, 2 h
T2 sequence (P42330 whole entry): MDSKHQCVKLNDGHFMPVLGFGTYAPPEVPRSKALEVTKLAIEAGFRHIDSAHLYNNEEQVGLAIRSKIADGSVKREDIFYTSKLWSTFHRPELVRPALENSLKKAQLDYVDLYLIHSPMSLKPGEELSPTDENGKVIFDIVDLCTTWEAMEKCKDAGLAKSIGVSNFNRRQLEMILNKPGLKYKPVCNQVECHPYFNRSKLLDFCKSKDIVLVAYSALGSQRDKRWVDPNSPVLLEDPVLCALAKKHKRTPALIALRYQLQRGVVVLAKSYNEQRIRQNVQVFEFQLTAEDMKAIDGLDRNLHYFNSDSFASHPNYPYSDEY

Sequence of Cytochrome P450 3A4 (P08684 whole entry): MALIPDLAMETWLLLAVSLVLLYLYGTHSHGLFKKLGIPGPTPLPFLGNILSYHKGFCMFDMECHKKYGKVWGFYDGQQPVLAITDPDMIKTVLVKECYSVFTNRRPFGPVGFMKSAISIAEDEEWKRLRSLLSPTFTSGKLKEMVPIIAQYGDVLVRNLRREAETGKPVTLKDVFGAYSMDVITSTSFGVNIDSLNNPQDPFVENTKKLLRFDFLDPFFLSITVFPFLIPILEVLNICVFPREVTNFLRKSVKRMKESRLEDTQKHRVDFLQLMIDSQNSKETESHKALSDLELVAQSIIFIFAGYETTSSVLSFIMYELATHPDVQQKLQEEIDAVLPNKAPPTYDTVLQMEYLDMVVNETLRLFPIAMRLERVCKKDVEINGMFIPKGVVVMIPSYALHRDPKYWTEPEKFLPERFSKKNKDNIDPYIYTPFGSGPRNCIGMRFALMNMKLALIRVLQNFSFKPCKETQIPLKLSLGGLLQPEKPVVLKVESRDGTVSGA

Structure (SMILES): CC(C)(C)NC(=O)N[C@H](C(=O)N1C[C@H]2[C@@H]([C@H]1C(=O)N[C@H](CC1CCC1)C(=O)C(N)=O)C2(C)C)C(C)(C)C
- Vmax [1]: 0.846 pmol/min
- Vmax/Km [2]: 30.9 µL/min
- Compound recovery [3]: BLD

Structure (SMILES): CC(C)(C)NC(=O)N[C@H](C(=O)N1C[C@H]2[C@@H]([C@H]1C(=O)NC(CC1CCC1)C(=O)C(N)=O)C2(C)C)C(C)(C)C (some centres not stated) [BOCEPREVIR]
- Radiolabel recovery [4]: 79%
- Radiolabel recovery [5]: 50%
- Radiolabel recovery [6]: 22%
- Compound recovery [7]: metabolite_detected
- Compound recovery [8]: metabolite_not_detected
- Compound recovery [9]: metabolite_not_detected
- Compound recovery [10]: metabolite_not_detected
- Compound recovery [11]: metabolite_not_detected

Structure (SMILES): CC(C)(C)NC(=O)N[C@H](C(=O)N1C[C@H]2[C@@H]([C@H]1C(=O)N[C@@H](CC1CCC1)[C@@H](O)C(N)=O)C2(C)C)C(C)(C)C
- inhibition (INH) [12]: 69%
